Patent US10913727B2, “Modulators of the integrated stress pathway” (Calico Life Sciences LLC, priority 2016, dated 2021)
pEC50: −log10 of the molar value.

These molecules were tested on HEK293T cells carrying the ATF4 luciferase reporter (assay: ATF4-Luc assay, in vitro model of Vanishing Cell White Matter Disease (VWMD)). Conditions: Homo sapiens, HEK-293T, 1 μg/mL tunicamycin, 7 hours, One Glo luminescence.
Assay type: cell-based
Summary of the method: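 Compound at 200 nM and tunicamycin at 1 μg/mL were given together for 7 h to HEK293T cells stably transduced with an ATF4 5′-UTR-driven firefly luciferase reporter. Read-out by luminescence, reported as EC50.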

Question: With `O=C(COc1ccc(Cl)c(F)c1)NC12CC(Nc3cccc4cnccc34)(C1)C2` [Compound 490, 2-(4-chloro-3-fluorophenoxy)-N-{3-[(isoquinolin-5-yl)amino]bicyclo[1.1.1]pentan-1-yl}acetamide] as the molecule, how does the pEC50 read?
Answer: Its pEC50 is 6.60 to 7.30.

Question: `O=C(COc1ccc(Cl)c(Cl)c1)NC12CC(Nc3cnc(C(F)(F)F)cn3)(C1)C2` [Compound 101, 2-(3,4-dichlorophenoxy)-N-(3-{[5-(trifluoromethyl)pyrazin-2-yl]amino}bicyclo-[1.1.1]pentan-1-yl)acetamide] was tested. Which pEC50 did it give?
Answer: The pEC50 was less than 5.70.

Question: How did the pEC50 turn out when `COc1ccc(C(=O)NC23CC(NC(=O)COc4ccc(Cl)c(F)c4)(C2)C3)cn1` [Compound 154, N-{3-[2-(4-chloro-3-fluorophenoxy)acetamido]bicyclo[1.1.1]pentan-1-yl}-6-methoxypyridine-3-carboxamide] was run?
Answer: Its pEC50 is 6.00 to 6.60.

Question: With `Cc1cc2c(NC34CC(NC(=O)COc5cccc(OC(F)F)c5)(C3)C4)nccn2n1` [Compound 439, 2-[3-(difluoromethoxy)phenoxy]-N-{3-[(2-methylpyrazolo[1,5-a]pyrazin-4-yl)amino]bicyclo[1.1.1]pentan-1-yl}acetamide] as the molecule, how does the pEC50 read?
Answer: Its pEC50 is less than 5.70.

Question: With `O=C(COc1ccc(Cl)c(F)c1)NC12CCC(NC(=O)c3ccc(C4CC4)cn3)(CC1)CC2O` (stereo not shown) [Compound 938, N-{4-[2-(4-chloro-3-fluorophenoxy)acetamido]-3-hydroxybicyclo[2.2.2]octan-1-yl}-5-cyclopropylpyridine-2-carboxamide] as the molecule, how does the pEC50 read?
Answer: The pEC50 was 6.60 to 7.30.

Question: With `O=C(COc1ccc(Cl)c(F)c1)NC12CC(NC(=O)c3cncc(N4CCOCC4)n3)(C1)C2` [Compound 894, N-{3-[2-(4-chloro-3-fluorophenoxy)acetamido]bicyclo[1.1.1]pentan-1-yl}-6-(morpholin-4-yl)pyrazine-2-carboxamide] as the molecule, how does the pEC50 read?
Answer: Its pEC50 is 6.00 to 6.60.

Question: `O=C(COc1ccc(Cl)c(F)c1)NC12CC(NC(=O)c3cc(N4CC(O)C4)ccn3)(C1)C2` [Compound 179, N-{3-[2-(4-chloro-3-fluorophenoxy)acetamido]bicyclo[1.1.1]pentan-1-yl}-4-(3-hydroxyazetidin-1-yl)pyridine-2-carboxamide] was tested. Which pEC50 did it give?
Answer: The pEC50 was 6.00 to 6.60.

Question: How did the pEC50 turn out when `O=C(COc1ccc(Cl)c(Cl)c1)NC12CC(NC(=O)c3ccc(C(F)F)nc3)(C1)C2` [Compound 927, N-{3-[2-(3,4-dichlorophenoxy)acetamido]bicyclo[1.1.1]pentan-1-yl}-6-(difluoromethyl)pyridine-3-carboxamide] was run?
Answer: The pEC50 was 6.60 to 7.30.

Question: `Cc1cc2c(NC34CC(NC(=O)COc5ccc6c(c5)OC(F)(F)O6)(C3)C4)nccn2n1` [Compound 422, 2-[(2,2-difluoro-2H-1,3-benzodioxol-5-yl)oxy]-N-{3-[(2-methylpyrazolo[1,5-a]pyrazin-4-yl)amino]bicyclo[1.1.1]pentan-1-yl}acetamide] was tested. Which pEC50 did it give?
Answer: The pEC50 was 6.60 to 7.30.

Question: With `O=C(COc1ccc(Cl)c(F)c1)NC12CC(NC(=O)c3cnc(C(F)(F)F)nc3)(C1)C2` [Compound 133, N-{3-[2-(4-chloro-3-fluorophenoxy)acetamido]bicyclo[1.1.1]pentan-1-yl}-2-(trifluoromethyl)pyrimidine-5-carboxamide] as the molecule, how does the pEC50 read?
Answer: The pEC50 was 5.70 to 6.00.

Question: With `Cc1ncc(C(=O)NC23CC(NC(=O)COc4ccc(Cl)c(F)c4)(C2)C3)s1` [Compound 285, N-{3-[2-(4-chloro-3-fluorophenoxy)acetamido]bicyclo[1.1.1]pentan-1-yl}-2-methyl-1,3-thiazole-5-carboxamide] as the molecule, how does the pEC50 read?
Answer: Its pEC50 is 6.60 to 7.30.

Question: With `Cc1ccc(C(=O)NC23CC(NC(=O)COc4ccc(Cl)c(F)c4)(C2)C3)c(C)n1` [Compound 684, N-{3-[2-(4-chloro-3-fluorophenoxy)acetamido]bicyclo[1.1.1]pentan-1-yl}-2,6-dimethylpyridine-3-carboxamide] as the molecule, how does the pEC50 read?
Answer: Its pEC50 is 5.70 to 6.00.

Question: How did the pEC50 turn out when `O=C(COc1ccc(Cl)c(F)c1)NC12CC(Nc3cnc(C(F)(F)F)cn3)(C1)C2` [Compound 102, 2-(4-chloro-3-fluorophenoxy)-N-(3-{[5-(trifluoromethyl)pyrazin-2-yl]amino}bicyclo[1.1.1]pentan-1-yl)acetamide] was run?
Answer: The pEC50 was 5.70 to 6.00.
